Laboratory results published in patent US20170022258A1, “PEPTIDES FOR USE IN THE TREATMENT OF IL-1 RELATED DISEASES AND CONDITIONS” (C4M PHARMACEUTICALS PTY LTD., priority 2011, published 2017).
Non-standard residues stand in square brackets, D forms with d. Residues, ends and D or L forms follow the SMILES beside them.

How the values were obtained:
[1] = Stability of peptide once dissolved in solution (1 month); format: physicochemical; conditions: 1 mg in 5 ml water, bicarbonate and benzyl alcohol (19, 4) or methanol (13, 14)
Method: Each of the peptides having the sequences 13, 14, 19 and 4 were tested to determine their stability in a solution containing (preferred composition above) water, bicarbonate and either benzyl alcohol (peptide 19 and 4) or methanol (peptide 13 and 14). Each of the peptides were held for a period of 1 month at either 4° C. or at room temperature.
1 mg of each peptide was added to the water, bicarbonate and either benzyl alcohol or methanol solution and the solution was gently agitated for 1 hour at room temperature before standing at either 4° C. or at room temperature for a period of 1 month.

[2] = test system: IL-1α-induced IL-8 production by Caco2 cells; assay: IL-1α induced IL-8 production by Caco2 colonic adenocarcinoma cells; format: cell-based, human; conditions: peptide 100 ng/ml, FIG. 2
Method: (§1) Human colon epithelial cell lines HT-29 and Caco2 obtained from the European Collection of Animal Cell Cultures (ECACC) were used in cell cultures. Cells were routinely cultured at 37° C. in an atmosphere of 5% CO2 in 80 cm^2 tissue culture flasks in McCoy's and DMEM medium, respectively, supplemented with penicillin (10 u/ml), streptomycin (10 μg/ml), fungizone (0.5 μg/ml), and 10% (v/v) FCS (referred to as complete medium) until confluent.
(§2) Confluent monolayers were sub-cultured into 6-well plates for experimental protocols. Cells were grown in 6-well plates until confluent. Twenty-four hours prior to the experiment the confluent monolayers were washed and cultured in FCS-free McCoy's medium. Growth arrested cultures were then treated with fresh FCS-free medium and stimulated with vehicle controls or various doses of IL-1α added alone or in combination with other pro-inflammatory cytokines (TNF-α, IFN-γ) in the presence or absence of the peptide of sequence 4 or IL-1 ra, in a dose and time dependent manner.
Supernatants were collected, centrifuged to remove cellular debris and stored at −70° C. until assayed for extracellular inflammatory mediators. […] Production of soluble mediators was assessed by commercially available ELISA in supernatants, RT-PCR in total RNA extractants and nitric oxide, as described in Kolios, G, et al. (1995). […]

[3] = test system: cancer patients with cachexia; assay: Treatment of cachexia in cancer patients (case reports); format: in vivo, human
Method: Patients are typically diagnosed as having cachexia where weight loss of at least 5% in 12 months or less (or BMI<20 kg/m^2), is accompanied by at least three of the following conditions: • Decreased muscle strength • Fatigue • Low fat-free mass index; and • Abnormal blood biochemistry: increased inflammatory markers (CRP, IL-6), anaemia (Hb<12 g/dL) and low serum albumin (<3.2 g/dL)
The peptide was administered by subcutaneous injection every second day for two weeks, in a composition containing the peptide dissolved in 5 ml of a solution comprising water, bicarbonate and either benzyl alcohol or methanol.
The peptide was administered by subcutaneous injection every second day for one month, in a composition containing the peptide dissolved in 5 ml of a solution comprising water, bicarbonate and either benzyl alcohol or methanol
The peptide was administered by subcutaneous injection every second day, in a composition containing the peptide dissolved in 5 ml of a solution comprising water, bicarbonate and either benzyl alcohol or methanol.
The peptide was administered by subcutaneous injection every second day for two months, in a composition containing the peptide dissolved in 5 ml of a solution comprising water, bicarbonate and either benzyl alcohol or methanol.
The peptide was administered by subcutaneous injection every second day for one week, in a composition containing the peptide dissolved in 5 ml of a solution comprising water, bicarbonate and either benzyl alcohol or methanol.
The peptide was administered by subcutaneous injection every second day for one month, in a composition containing the peptide dissolved in 5 ml of a solution comprising water, bicarbonate and either benzyl alcohol or methanol.
The peptide was administered by subcutaneous injection every second day for one month in a composition containing the peptide dissolved in 5 ml of a solution comprising water, bicarbonate and either benzyl alcohol or methanol.

[4] = test system: IL-1α+IFN-γ induced IL-8 production by HT-29 cells; assay: IL-1α+IFN-γ induced IL-8 production by HT-29 cells; format: cell-based, human
Method: as §1, §2
Supernatants were collected, centrifuged to remove cellular debris and stored at −70° C. until assayed for extracellular inflammatory mediators. Total RNA for RT-PCR was extracted as described above. Cell counting and viability was routinely checked at the beginning and the end of the experiment by phase microscopy and by trypan blue exclusion using representative wells. Mycoplasma tests were performed during the experimental protocol. Production of soluble mediators was assessed by commercially available ELISA in supernatants, RT-PCR in total RNA extractants and nitric oxide, as described in Kolios, G, et al. (1995). Br J Pharmacol, 116, 2866-2872, the contents of which are incorporated herein by reference.
Stimulation of HT-29 cells with a combination of pro-inflammatory cytokines induces increased secretion of chemokines, including IL-8 (as described in Kolios, G, et al. (1999). Eur J Immunol, 29, 530-536 the contents of which are herein incorporated by reference). […]

[5] = Human plasma stability trials; format: in vitro ADME; conditions: 37° C., 12 hours, read-out: ½ Life human plasma
Method: 1 mg of each peptide was added to the plasma and the solution was gently agitated for 2 minutes at room temperature before standing at 37° C. for a period of 12 hours.

cows = assay: Testing of peptide 4 in cows for treatment of mastitis; format: in vivo, cow; conditions: 1 mg, IV
Method: The peptides were prepared as compositions containing 1 mg of peptide dissolved in 5 ml of a solution comprising water, bicarbonate and either benzyl alcohol or methanol.

[6] = Example 16: breast cancer, 1 mg subcutaneous every second day for one month

CC(=O)N[C@H](CC(C)C)C(=O)N1CCC[C@@H]1C(=O)N[C@H](CC(C)C)C(=O)N[C@H](C)C(=O)N[C@H](Cc1ccc(O)cc1)C(=O)N1CCC[C@@H]1C(=O)N[C@H](CCC(N)=O)C(=O)N[C@H](Cc1c[nH]c2ccccc12)C(=O)N[C@H](Cc1ccc(O)cc1)C(=O)NCC(=O)N1CCC[C@@H]1C(=O)N[C@@H](C(=O)N[C@H](Cc1c[nH]c2ccccc12)C(=O)N[C@H](CCC(=O)O)C(=O)N[C@H](Cc1ccccc1)C(=O)O)[C@H](C)O [SEQ ID NO. 4, Ac-LPLAYPQWYGPTWEF] (Ac-[dL][dP][dL][dA][dY][dP][dQ][dW][dY]G[dP][dT][dW][dE][dF]-OH; C-terminus assumed)
Stability of peptide once dissolved in solution (at 1 month), 4° C. (month) ([1]; 4° C.): 100%
Stability of peptide once dissolved in solution (at 1 month), Room Temp (month) ([1]; room temperature): 96%
Effect on IL-1α-induced IL-8 secretion [2]: significant decrease
Side effects due to the administration of the peptide ([3]; Example 9: breast cancer, 1 mg subcutaneous every second day for two weeks): No side effects were noted
Symptoms of cachexia ([3]; Example 9: breast cancer, 1 mg subcutaneous every second day for two weeks, after 24 hours): cachexia symptoms were alleviated
Symptoms of cachexia ([3]; Example 10: adrenal adenomas, 1 mg subcutaneous every second day for one month): symptoms of cachexia were alleviated
Symptoms of cachexia ([3]; Example 11: glioblastoma, 1 mg subcutaneous every second day): symptoms of cachexia were alleviated
Symptoms of cachexia ([3]; Example 12: brain adenoma, 1 mg subcutaneous every second day for two months, two days after commencement): symptoms of cachexia were alleviated
Symptoms of cachexia ([3]; Example 13: brain glioma, 1 mg subcutaneous every second day for one week): symptoms of cachexia were alleviated
Symptoms of cachexia ([3]; Example 14: ovarian cancer, 1 mg subcutaneous every second day for one month): symptoms of cachexia were also alleviated
Symptoms of cachexia ([3]; Example 15: bone cancer, 1 mg subcutaneous every second day for one month): symptoms of cachexia were alleviated
Symptoms of cachexia [3, 6]: symptoms of cachexia were also alleviated
Weight put on [3, 6]: 5 kg
Symptoms of cachexia ([3]; Example 17: breast cancer, 1 mg subcutaneous every second day for two weeks): symptoms of cachexia were alleviated
Symptoms of cachexia ([3]; Example 18: bladder cancer, 1 mg subcutaneous every second day for one month, after 24 from commencement): symptoms of cachexia were alleviated
Symptoms of cachexia ([3]; Example 19: colon cancer, 1 mg subcutaneous every second day for one month): symptoms of cachexia were largely alleviated
Symptoms of cachexia ([3]; Example 20: colon cancer, 1 mg subcutaneous every second day for one month, one month after commencement): symptoms of cachexia had been treated
Symptoms of cachexia ([3]; Example 21: glioblastoma, 1 mg subcutaneous every second day for one month, two days after commencement): cachexia started to diminish
Symptoms of cachexia ([3]; Example 22: glioblastoma, 1 mg subcutaneous every second day, after 24 hours): symptoms of cachexia had been alleviated
Symptoms of cachexia ([3]; Example 23: Hodgkin's lymphoma, 1 mg subcutaneous every second day for one month, after three weeks): symptoms of cachexia were alleviated
Weight gained ([3]; Example 24: colon cancer, 1 mg subcutaneous every second day): ~5 kg
Symptoms of cachexia ([3]; Example 24: colon cancer, 1 mg subcutaneous every second day, after two weeks): symptoms of cachexia were alleviated
Symptoms of cachexia ([3]; Example 25: non-Hodgkin's lymphoma, 1 mg subcutaneous every second day, after 4 days): symptoms of cachexia were alleviated
Symptoms of cachexia ([3]; Example 26: pancreatic cancer, 1 mg subcutaneous every second day, after 7 days): symptoms of cachexia were alleviated
Symptoms of cachexia ([3]; Example 27: liposarcoma, 1 mg subcutaneous every second day, after 3 days): symptoms of cachexia were alleviated
Symptoms of cachexia ([3]; Example 28: liver cancer, 1 mg subcutaneous every second day, after one week): symptoms of cachexia were largely alleviated
IL-1α+IFN-γ induced IL-8 production ([4]; 10 ng/ml IL-1α+300 U IFN-γ, peptide 5 ng/ml, stimulated control 78.79±6.99, n=3): 35.41±4.23 ng/ml per 106 cells
Effect on IL-1α+IFN-γ induced IL-8 production ([4]; all concentrations used, 5 ng/ml-1 μg/ml, p<0.01, FIG. 3): inhibitory effect for all concentrations used
half-life [5]: 18.1 h
Duration (cows): 72 h
Effect (cows): Pronounced
